System: rat artery smooth muscles (SM)
Assay: Intracellular potential of a rat artery smooth muscle cell on carbachol administration, voltage clamp with measurement device 10
Format: cell-based
Procedure: As the biological sample 21, rat artery smooth muscles (SM) were used. As a solution to be injected into the measurement device 10, DMEM culture medium to which 10% FBS (fetal bovine serum) was added was used. An SM cell was inserted into the microelectrode 1 by performing the same operation as that of EXAMPLE 2, and then an intracellular potential when 100 μM carbachol, which was an analog of acetylcholine, was introduced as a solution was measured by a voltage clamp method.
The results were similar to those obtained by the known intracellular recording method.
FIG. 13 is a histogram of standard deviation per 10 ms before and after a carbachol administration. The mean value and half width of the graph, obtained by approximating the histogram before and after a carbachol administration with a normal distribution are 0.185 and 0.04, respectively, before the administration and 0.545 and 0.21, respectively, after the administration. […] The reason for the increase was that by the administration of carbachol, ion channels of the […] was activated, and changes in conductance due to switching of the activated ion channels is expressed by voltage change. From FIG. 13, it was confirmed that with the measurement device 10, ion channel properties for a nerve stimulator can be determined as in the same manner in the known intracellular recording method.

For C[N+](C)(C)CCOC(N)=O [carbachol], the “action potential in response to carbachol” value (100 μM carbachol introduced as a solution, SM cell on microelectrode, DMEM + 10% FBS, FIG. 12) was “detected” and the “mean value of histogram of standard deviation per 10 ms of the action potential (normal distribution approximation)” value (after carbachol administration (100 μM), before administration 0.185, FIG. 13) was 0.545.

Reference: US7462324B2, “Measurement device and method for measuring electric signal from biological sample” (Panasonic Corporation, priority 2002, dated 2008)
